# ChEMBL document CHEMBL5212743, “Selectivity Literature for EUbOPEN Chemogenomics Library wave 3” (2023)
# Key:
# [1] = target: T1, Alpha-1A adrenergic receptor (Homo sapiens, UniProt P35348); test: Selectivity interaction (GPCR panel (PDSP screen)) EUB0000705a ADRA1A
# T1 sequence (P35348 whole entry): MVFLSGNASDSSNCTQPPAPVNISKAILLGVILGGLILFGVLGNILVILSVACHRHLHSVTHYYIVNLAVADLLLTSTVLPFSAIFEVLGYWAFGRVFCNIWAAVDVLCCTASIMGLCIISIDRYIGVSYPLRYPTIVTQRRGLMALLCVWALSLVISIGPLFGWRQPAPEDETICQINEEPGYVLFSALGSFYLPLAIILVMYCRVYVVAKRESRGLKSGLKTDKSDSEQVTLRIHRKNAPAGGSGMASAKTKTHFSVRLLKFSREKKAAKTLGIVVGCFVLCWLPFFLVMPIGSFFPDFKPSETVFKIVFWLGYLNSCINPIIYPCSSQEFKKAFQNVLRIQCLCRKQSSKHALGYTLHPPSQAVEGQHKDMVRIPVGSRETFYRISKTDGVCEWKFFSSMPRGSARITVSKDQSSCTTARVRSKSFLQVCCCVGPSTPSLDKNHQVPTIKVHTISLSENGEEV
# [2] = target: T2, Alpha-1D adrenergic receptor (Homo sapiens, UniProt P25100); test: Selectivity interaction (GPCR panel (PDSP screen)) EUB0000705a ADRA1D
# T2 sequence (P25100 whole entry): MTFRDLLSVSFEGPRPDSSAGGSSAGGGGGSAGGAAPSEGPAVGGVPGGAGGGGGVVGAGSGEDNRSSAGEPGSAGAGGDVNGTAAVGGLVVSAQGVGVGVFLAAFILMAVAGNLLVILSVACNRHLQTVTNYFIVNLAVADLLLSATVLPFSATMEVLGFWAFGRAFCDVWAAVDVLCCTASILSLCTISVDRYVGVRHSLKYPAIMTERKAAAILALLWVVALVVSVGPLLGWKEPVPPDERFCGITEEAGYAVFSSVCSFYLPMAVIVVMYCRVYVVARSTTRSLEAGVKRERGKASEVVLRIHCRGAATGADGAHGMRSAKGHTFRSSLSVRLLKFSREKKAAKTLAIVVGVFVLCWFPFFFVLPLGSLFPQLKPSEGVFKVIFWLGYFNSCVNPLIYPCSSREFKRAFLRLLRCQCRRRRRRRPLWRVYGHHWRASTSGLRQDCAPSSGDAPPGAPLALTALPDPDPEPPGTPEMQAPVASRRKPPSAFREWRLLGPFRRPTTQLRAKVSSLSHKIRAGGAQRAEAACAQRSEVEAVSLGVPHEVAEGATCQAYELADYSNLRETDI
# [3] = target: Mu-type opioid receptor (Homo sapiens, UniProt P35372); test: Selectivity interaction (GPCR panel (PDSP screen)) EUB0000705a OPRM1
# [4] = target: Beta-3 adrenergic receptor (Homo sapiens, UniProt P13945); test: Selectivity interaction (GPCR panel (PDSP screen)) EUB0000705a ADRB3
# Sequence of Beta-3 adrenergic receptor (P13945 whole entry): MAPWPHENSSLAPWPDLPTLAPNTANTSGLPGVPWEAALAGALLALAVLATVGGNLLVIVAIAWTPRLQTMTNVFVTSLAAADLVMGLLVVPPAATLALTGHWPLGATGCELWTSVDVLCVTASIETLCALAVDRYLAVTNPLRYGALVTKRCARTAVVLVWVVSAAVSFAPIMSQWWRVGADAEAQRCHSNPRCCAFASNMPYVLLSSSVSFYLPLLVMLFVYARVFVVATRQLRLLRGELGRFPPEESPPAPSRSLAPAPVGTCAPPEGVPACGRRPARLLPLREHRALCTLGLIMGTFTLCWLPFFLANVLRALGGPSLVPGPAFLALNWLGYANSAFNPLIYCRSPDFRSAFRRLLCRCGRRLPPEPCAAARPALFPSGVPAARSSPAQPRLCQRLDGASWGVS
# [5] = target: T3, Alpha-2C adrenergic receptor (Homo sapiens, UniProt P18825); test: Selectivity interaction (GPCR panel (PDSP screen)) EUB0000705a ADRA2C
# T3 sequence (P18825 whole entry): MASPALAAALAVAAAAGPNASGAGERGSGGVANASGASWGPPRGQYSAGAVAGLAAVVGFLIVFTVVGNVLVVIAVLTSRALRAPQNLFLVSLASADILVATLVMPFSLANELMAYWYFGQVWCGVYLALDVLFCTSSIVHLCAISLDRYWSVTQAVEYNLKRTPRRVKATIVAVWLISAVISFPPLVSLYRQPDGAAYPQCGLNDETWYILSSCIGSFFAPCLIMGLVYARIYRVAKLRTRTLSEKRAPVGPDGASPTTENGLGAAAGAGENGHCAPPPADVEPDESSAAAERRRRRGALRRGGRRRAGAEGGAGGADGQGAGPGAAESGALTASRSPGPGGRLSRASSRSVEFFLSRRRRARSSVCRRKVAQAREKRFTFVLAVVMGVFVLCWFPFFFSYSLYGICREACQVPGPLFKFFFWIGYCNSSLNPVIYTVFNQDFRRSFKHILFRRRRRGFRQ
# [6] = target: T4, Leucine-rich repeat serine/threonine-protein kinase 2 (Homo sapiens, UniProt Q5S007); test: Selectivity interaction (KinomeScan (DiscoverX)) EUB0000705a LRRK2; details: at 1 µM
# T4 sequence (Q5S007 whole entry): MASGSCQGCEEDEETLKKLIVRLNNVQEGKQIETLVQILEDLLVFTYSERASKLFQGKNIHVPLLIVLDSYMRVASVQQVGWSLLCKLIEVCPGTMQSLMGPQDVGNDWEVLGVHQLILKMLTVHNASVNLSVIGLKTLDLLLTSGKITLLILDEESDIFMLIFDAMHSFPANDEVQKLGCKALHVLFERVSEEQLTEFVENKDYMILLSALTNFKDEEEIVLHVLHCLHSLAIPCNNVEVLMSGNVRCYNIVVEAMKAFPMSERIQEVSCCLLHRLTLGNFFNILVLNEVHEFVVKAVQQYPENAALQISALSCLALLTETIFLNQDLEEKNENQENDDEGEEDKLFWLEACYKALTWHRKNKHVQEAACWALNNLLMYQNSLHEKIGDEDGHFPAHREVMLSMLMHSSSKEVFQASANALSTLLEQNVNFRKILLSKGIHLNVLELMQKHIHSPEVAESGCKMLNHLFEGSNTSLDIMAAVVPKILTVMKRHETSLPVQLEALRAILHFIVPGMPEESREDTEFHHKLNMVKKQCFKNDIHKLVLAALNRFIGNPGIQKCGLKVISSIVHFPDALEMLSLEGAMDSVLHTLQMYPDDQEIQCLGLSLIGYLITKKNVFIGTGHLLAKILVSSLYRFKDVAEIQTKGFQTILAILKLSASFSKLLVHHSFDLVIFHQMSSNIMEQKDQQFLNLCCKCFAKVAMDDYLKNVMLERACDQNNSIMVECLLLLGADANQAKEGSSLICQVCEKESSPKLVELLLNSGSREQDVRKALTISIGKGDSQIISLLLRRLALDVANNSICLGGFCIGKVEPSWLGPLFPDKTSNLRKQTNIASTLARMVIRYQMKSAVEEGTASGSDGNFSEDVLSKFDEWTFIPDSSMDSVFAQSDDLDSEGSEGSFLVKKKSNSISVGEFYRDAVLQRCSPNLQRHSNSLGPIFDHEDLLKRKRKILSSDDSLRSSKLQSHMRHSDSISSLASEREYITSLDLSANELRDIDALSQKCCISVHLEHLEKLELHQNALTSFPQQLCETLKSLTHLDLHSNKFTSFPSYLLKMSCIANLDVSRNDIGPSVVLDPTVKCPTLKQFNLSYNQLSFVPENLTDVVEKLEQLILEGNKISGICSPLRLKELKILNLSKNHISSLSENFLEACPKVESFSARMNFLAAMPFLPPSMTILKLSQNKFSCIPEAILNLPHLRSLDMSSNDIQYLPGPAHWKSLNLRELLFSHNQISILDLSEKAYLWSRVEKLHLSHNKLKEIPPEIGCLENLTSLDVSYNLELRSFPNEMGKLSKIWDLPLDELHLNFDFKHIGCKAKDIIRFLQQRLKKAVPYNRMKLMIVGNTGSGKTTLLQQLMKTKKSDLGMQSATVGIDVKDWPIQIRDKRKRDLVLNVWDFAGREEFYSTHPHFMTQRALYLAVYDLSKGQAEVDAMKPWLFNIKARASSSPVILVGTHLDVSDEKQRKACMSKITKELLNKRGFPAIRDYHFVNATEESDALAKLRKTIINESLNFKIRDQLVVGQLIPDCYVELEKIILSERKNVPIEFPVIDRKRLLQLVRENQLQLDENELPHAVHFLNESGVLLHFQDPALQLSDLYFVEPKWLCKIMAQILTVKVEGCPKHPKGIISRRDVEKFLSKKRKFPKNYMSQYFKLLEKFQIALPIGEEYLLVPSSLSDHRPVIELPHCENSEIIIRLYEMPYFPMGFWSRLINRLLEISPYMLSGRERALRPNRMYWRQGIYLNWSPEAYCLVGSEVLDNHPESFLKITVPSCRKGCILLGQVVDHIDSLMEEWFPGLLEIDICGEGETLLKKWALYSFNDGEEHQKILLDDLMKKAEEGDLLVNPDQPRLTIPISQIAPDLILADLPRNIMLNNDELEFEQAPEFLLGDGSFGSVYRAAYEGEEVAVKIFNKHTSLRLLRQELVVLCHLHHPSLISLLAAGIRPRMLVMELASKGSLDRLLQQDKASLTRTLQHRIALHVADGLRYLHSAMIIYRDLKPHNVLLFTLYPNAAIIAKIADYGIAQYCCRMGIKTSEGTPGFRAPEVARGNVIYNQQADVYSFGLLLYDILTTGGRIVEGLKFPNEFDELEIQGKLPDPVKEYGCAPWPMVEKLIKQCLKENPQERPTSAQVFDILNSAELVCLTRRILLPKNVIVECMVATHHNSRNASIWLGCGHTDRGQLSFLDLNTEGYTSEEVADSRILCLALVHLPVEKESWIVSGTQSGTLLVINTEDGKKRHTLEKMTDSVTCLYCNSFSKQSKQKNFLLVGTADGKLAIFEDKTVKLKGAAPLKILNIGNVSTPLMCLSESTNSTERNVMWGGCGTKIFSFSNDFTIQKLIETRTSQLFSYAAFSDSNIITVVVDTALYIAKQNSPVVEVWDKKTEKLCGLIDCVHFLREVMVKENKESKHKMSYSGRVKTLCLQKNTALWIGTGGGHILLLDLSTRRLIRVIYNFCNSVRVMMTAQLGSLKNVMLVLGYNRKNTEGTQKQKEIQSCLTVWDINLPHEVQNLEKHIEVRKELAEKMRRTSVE
# [7] = target: T4, Leucine-rich repeat serine/threonine-protein kinase 2; test: Selectivity interaction (NanoBRET assay (HEK293T cells)) EUB0000705a LRRK2
# [8] = target: 5-hydroxytryptamine receptor 1A (Homo sapiens, UniProt P08908); test: Selectivity interaction (GPCR panel (PDSP screen)) EUB0000705a HTR1A
# [9] = target: T5, Phosphatidylinositol 5-phosphate 4-kinase type-2 beta (Homo sapiens) (UniProt P78356); test: Selectivity interaction (KinomeScan (DiscoverX)) EUB0000724a PIP4K2B; details: at 1 µM
# T5 sequence (whole entry): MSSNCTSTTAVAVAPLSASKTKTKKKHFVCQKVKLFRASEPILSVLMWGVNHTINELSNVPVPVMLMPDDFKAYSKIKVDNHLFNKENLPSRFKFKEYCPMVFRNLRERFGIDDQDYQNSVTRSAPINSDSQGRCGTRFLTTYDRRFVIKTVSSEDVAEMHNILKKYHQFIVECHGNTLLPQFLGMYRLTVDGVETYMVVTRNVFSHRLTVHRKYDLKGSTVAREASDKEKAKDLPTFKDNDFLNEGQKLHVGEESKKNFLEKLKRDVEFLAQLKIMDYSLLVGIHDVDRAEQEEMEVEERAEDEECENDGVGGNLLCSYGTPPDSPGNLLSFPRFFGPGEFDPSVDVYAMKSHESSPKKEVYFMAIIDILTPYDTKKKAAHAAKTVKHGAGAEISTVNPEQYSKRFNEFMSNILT
# [10] = target: Serine/threonine-protein kinase Nek7 (Homo sapiens, UniProt Q8TDX7); test: Selectivity interaction (KinomeScan (DiscoverX)) EUB0000724a NEK7; details: at 1 µM
# Sequence of Serine/threonine-protein kinase Nek7 (Q8TDX7 whole entry, looked up): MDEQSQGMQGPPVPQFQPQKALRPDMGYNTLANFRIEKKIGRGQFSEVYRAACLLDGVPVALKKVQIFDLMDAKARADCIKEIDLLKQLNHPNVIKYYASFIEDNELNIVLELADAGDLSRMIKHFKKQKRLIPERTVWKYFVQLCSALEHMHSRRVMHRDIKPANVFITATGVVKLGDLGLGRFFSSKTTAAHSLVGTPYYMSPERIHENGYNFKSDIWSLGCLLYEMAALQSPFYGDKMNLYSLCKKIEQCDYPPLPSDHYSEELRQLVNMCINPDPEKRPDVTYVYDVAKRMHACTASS
# [11] = target: T6, Homeodomain-interacting protein kinase 2 (Homo sapiens, UniProt Q9H2X6); test: Selectivity interaction (NanoBRET assay (HEK293T cells)) EUB0000724a HIPK2
# [12] = target: T7, Serine/threonine-protein kinase 16 (Homo sapiens, UniProt O75716); test: Selectivity interaction (NanoBRET assay (HEK293T cells)) EUB0000724a STK16
# T7 sequence (O75716 whole entry): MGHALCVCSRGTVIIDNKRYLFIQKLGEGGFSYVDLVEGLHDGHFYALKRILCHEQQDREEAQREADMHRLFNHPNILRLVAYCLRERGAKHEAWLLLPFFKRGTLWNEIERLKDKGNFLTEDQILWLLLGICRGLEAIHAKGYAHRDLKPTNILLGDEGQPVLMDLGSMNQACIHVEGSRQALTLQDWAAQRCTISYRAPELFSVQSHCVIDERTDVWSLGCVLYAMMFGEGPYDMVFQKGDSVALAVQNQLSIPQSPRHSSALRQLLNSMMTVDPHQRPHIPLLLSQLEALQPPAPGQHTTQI
# [13] = target: T8, Mitogen-activated protein kinase 15 (Homo sapiens) (UniProt Q8TD08); test: Selectivity interaction (KinomeScan (DiscoverX)) EUB0000724a MAPK15; details: at 1 µM
# T8 sequence (whole entry): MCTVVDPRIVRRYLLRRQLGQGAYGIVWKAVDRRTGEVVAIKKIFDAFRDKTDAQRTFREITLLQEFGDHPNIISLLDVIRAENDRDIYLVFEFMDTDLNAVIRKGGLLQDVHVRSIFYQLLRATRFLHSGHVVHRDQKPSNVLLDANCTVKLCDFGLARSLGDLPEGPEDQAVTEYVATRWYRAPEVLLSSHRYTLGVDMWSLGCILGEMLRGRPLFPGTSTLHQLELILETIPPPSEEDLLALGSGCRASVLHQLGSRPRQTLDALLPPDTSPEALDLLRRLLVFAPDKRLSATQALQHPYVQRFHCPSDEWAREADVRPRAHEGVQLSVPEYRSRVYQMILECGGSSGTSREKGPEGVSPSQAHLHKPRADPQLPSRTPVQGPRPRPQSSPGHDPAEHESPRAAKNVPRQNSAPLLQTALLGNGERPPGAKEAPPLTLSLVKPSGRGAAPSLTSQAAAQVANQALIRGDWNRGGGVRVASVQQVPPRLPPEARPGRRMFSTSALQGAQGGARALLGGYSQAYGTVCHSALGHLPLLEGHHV
# [14] = target: T9, Homeodomain-interacting protein kinase 1 (Homo sapiens, UniProt Q86Z02); test: Selectivity interaction (KinomeScan (DiscoverX)) EUB0000724a HIPK1; details: at 1 µM
# Target sequence in this assay (Q86Z02 whole entry, looked up): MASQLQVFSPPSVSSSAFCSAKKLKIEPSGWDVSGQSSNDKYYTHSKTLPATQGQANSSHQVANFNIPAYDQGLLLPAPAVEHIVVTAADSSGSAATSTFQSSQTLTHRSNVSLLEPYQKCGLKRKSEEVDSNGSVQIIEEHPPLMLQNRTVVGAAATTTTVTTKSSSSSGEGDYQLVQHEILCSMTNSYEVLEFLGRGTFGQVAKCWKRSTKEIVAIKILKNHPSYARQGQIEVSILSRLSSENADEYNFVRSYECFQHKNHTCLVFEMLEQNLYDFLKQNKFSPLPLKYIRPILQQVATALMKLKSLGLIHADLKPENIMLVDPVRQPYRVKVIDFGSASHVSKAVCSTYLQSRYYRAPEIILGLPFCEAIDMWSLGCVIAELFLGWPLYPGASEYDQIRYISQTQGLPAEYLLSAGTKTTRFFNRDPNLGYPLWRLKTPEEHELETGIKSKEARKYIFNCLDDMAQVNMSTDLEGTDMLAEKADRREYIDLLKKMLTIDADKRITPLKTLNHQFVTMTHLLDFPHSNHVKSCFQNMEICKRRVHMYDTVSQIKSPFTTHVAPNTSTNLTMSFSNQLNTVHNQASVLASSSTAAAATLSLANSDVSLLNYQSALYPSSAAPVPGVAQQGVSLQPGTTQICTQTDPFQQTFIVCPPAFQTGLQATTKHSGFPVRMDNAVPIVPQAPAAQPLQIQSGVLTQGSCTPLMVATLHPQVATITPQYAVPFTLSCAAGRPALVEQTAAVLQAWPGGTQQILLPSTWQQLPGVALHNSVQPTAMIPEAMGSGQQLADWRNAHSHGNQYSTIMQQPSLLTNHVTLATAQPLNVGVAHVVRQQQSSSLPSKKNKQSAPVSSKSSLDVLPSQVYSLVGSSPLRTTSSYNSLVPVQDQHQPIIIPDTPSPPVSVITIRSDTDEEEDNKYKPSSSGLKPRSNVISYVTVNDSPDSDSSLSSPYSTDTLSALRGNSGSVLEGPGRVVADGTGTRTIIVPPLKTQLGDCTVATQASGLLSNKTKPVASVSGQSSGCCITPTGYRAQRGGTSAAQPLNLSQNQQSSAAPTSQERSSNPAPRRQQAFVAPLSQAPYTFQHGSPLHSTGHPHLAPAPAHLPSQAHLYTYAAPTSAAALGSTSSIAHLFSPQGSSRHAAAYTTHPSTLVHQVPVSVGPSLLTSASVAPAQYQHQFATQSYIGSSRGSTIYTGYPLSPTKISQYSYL
# [15] = target: T7, Serine/threonine-protein kinase 16; test: Selectivity interaction (KinomeScan (DiscoverX)) EUB0000724a STK16; details: at 1 µM
# [16] = target: T6, Homeodomain-interacting protein kinase 2; test: Selectivity interaction (KinomeScan (DiscoverX)) EUB0000724a HIPK2; details: at 1 µM
# [17] = target: T9, Homeodomain-interacting protein kinase 1; test: Selectivity interaction (NanoBRET assay (HEK293T cells)) EUB0000724a HIPK1
# Target sequence in this assay (Q86Z02 whole entry): as the sequence (Q86Z02 whole entry, looked up) above
Ki [1],Ki [2],Ki [3],Ki [4],Ki [5],% of control [6],IC50 [7],Ki [8],% of control [9],% of control [10],IC50 [11],IC50 [12],% of control [14],% of control [15],% of control [16],IC50 [17],Structure (SMILES),% of control [13]
1.67 µM,> 10 µM,4.52 µM,> 10 µM,> 10 µM,> 95%,> 10 µM,2.18 µM,,,,,,,,,CN1CCN(C(=O)C(C)(C)c2ccc(C(=O)Nc3cn4cc(-c5cc(C(C)(C)C)cc(C(C)(C)C)c5)ccc4n3)cc2)CC1 [T3-CLK-N],
,,,,,,,,50%,40%,> 10 µM,0.167 µM,31%,53%,34%,> 10 µM,COc1cc(Nc2nccc(-c3cnn4nc(OC)ccc34)n2)cc(C(F)(F)F)c1,21%
